The values that follow come from patent publication US12692221B2 (priority 2024, dated 2026).

In the assay the test system is Balb/c mice sensitized to OVA. The assay is described as follows: Airway hyperresponsiveness in OVA-induced murine allergic asthma, whole-body plethysmography with methacholine challenge. The class given is in vivo, mouse. The following applies: 0.5 mg/kg intraperitoneal + OVA, measured 48 hours after final OVA exposure. The protocol: Methods: Experiments were conducted in accordance with the methods of Flanagan et al., ACS Pharmacol Transl Sci. 2020 Aug. 13; 4(2):488-502 with modifications. Briefly, Balb/c mice were sensitized to OVA via IP injection. Mice were then exposed repeatedly to aerosolized OVA to induce acute allergic airway inflammation. Airway responsiveness was assessed using non-invasive whole-body plethysmography (WBP) and methacholine challenge. Lung tissue was analyzed to quantify inflammation and mucus production.
Mice were separated into three experimental groups: 1) Naive mice were not exposed to OVA sensitization and challenge, 2) OVA mice were sensitized and challenged with the allergen OVA to induce allergic airway inflammation and hyperresponsiveness, and 3) 0.5 mg/kg exemplary compound+OVA. The exemplary compound was administered to mice via intraperitoneal injection. Respiratory parameters were measured 48 hours after the final OVA exposure. Airway responsiveness to methacholine was measured using noninvasive whole-body plethysmography (WBP) in unrestrained mice.
Baseline PenH values were recorded for each experimental group, followed by exposure to aerosolized saline or increasing concentrations of methacholine, to assess the sensitivity and reactivity of airways due to its bronchoconstricting activity. PenH values were recorded, and data were analyzed using software. […]

SMILES strings stand for the structures.

On to `COCc1cc(CCN)c(OC)cc1CC(C)C` [Compound 2CiBu-5MM, 2-[4-isobutyl-2-methoxy-5-(methoxymethyl)phenyl]ethanamine], for which the “PenH response to methacholine (airway hyperresponsiveness)” value is listed as “reduced PenH values to levels representative of normal airway function”.
